ChEMBL document CHEMBL1155131, “Discovery of conformationally rigid 3-azabicyclo[3.1.0]hexane-derived dipeptidyl peptidase-IV inhibitors” (Bioorg Med Chem Lett, 2008)

Legend:
[1] = Antiproliferative activity against T cells; conditions: T-cell
[2] = biological target: Dipeptidyl peptidase 2 (Homo sapiens, UniProt Q9UHL4); test: Inhibition of DPP2
[3] = biological target: T1, Prolyl endopeptidase (Homo sapiens, UniProt P48147); test: Inhibition of PPCE
T1 sequence (P48147 whole entry): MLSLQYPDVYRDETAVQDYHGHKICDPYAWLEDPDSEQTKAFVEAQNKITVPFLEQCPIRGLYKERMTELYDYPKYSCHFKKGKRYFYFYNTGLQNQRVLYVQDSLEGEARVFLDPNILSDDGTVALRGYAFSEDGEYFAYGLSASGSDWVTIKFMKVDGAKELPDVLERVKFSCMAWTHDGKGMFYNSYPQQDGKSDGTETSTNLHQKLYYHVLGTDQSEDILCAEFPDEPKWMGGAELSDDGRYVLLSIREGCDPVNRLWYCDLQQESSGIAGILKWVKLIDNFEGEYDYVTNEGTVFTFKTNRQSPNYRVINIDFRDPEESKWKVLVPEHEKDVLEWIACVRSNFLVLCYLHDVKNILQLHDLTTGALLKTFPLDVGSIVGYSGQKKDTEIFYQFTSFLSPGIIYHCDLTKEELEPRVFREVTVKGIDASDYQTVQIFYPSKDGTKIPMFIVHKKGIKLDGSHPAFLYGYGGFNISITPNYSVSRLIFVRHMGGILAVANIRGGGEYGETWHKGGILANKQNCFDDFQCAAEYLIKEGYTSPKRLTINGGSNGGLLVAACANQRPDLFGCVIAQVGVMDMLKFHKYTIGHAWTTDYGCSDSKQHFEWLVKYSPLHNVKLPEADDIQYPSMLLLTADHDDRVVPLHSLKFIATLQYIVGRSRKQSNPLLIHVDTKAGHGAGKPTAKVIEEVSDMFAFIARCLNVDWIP

[4] = biological target: Dipeptidyl peptidase 8 (Homo sapiens, UniProt Q6V1X1); test: Inhibition of DPP8
Sequence of Dipeptidyl peptidase 8 (Q6V1X1 whole entry): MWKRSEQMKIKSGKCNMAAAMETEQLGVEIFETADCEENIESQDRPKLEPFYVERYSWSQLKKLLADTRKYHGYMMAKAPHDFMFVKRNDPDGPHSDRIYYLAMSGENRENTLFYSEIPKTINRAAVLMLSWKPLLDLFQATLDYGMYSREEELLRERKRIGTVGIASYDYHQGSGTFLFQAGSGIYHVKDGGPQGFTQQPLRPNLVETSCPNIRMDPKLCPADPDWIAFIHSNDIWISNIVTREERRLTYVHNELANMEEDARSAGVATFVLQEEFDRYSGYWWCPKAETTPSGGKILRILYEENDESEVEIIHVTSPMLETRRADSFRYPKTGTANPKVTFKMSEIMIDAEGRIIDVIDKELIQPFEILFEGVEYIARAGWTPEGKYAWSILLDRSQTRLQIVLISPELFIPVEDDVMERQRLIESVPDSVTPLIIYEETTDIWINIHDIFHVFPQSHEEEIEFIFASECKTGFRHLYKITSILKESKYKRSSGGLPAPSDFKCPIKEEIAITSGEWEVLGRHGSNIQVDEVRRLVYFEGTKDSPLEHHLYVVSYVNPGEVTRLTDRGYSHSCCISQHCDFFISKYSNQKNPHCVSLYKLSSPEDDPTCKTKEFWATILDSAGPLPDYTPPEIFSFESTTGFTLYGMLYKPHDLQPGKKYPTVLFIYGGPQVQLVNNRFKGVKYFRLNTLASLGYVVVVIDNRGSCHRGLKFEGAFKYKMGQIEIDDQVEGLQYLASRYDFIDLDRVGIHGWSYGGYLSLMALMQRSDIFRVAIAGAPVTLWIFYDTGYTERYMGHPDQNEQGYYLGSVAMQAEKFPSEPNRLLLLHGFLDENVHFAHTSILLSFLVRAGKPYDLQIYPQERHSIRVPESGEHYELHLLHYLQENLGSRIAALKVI

[5] = biological target: Dipeptidyl peptidase 4 (Homo sapiens, UniProt P27487); test: Inhibition of human plasma DPP4; format: cell-free
Sequence of Dipeptidyl peptidase 4 (P27487 whole entry): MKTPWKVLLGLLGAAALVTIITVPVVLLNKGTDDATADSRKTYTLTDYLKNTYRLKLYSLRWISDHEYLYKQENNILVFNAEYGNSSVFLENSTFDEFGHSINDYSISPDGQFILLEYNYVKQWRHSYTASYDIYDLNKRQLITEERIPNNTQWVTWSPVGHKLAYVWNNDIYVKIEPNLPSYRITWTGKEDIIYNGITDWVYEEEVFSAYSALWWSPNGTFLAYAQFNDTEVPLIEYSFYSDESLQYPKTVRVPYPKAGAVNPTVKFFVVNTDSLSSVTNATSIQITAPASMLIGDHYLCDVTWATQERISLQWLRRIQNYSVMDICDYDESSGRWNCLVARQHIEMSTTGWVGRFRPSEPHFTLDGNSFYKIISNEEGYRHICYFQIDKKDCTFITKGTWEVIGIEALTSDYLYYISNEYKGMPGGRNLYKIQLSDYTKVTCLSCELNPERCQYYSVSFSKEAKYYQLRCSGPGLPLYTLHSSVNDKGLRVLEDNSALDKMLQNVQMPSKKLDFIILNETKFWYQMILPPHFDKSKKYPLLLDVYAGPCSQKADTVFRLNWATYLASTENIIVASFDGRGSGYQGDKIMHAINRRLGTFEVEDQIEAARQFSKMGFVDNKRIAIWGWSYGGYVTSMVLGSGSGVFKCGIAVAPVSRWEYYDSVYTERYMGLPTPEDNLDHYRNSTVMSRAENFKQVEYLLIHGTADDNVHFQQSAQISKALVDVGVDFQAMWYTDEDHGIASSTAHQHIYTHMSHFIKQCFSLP

[6] = biological target: Dipeptidyl peptidase 9 (Homo sapiens, UniProt Q86TI2); test: Inhibition of DPP9
Sequence of Dipeptidyl peptidase 9 (Q86TI2 whole entry): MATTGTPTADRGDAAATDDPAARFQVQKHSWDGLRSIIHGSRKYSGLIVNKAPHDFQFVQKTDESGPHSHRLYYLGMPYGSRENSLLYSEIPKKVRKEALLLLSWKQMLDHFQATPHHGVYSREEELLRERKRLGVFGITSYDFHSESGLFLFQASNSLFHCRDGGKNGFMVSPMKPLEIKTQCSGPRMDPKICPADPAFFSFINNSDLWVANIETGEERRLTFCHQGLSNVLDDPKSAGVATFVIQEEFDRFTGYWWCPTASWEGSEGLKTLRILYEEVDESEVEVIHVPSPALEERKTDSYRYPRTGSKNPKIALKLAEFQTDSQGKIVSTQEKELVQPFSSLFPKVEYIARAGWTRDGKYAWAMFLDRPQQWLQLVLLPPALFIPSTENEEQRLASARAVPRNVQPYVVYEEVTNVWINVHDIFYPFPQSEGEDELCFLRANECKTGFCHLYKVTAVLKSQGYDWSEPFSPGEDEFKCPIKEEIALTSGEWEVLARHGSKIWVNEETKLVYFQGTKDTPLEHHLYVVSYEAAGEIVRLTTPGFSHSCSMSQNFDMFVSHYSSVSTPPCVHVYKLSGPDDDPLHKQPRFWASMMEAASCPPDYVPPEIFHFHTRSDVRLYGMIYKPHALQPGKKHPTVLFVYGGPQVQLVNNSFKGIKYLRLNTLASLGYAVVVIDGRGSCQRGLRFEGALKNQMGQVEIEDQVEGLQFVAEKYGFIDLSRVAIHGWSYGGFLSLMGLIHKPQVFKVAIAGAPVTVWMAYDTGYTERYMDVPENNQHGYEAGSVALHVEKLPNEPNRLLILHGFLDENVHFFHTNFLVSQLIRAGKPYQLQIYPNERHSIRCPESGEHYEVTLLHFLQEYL

SMILES | IC50 [2] [µM] | IC50 [3] [µM] | further results
CNC(=O)c1ccc(N2C[C@@H]3[C@H](C2)[C@H]3NCC(=O)N2C[C@@H](F)C[C@H]2C#N)cc1 | – | – | IC50 [1]: > 10 µM
N#C[C@@H]1C[C@H](F)CN1C(=O)CN[C@H]1[C@@H]2CN(c3ccc(C(=O)NC4CC4)cc3)C[C@@H]21 | – | – | IC50 [1]: > 10 µM
N#C[C@@H]1C[C@H](F)CN1C(=O)CN[C@H]1[C@@H]2CN(c3ccc(Cl)cn3)C[C@@H]21 | 8.75 | 9.04 | IC50 [1]: > 10 µM
N#Cc1ccc(N2C[C@@H]3[C@H](C2)[C@H]3NCC(=O)N2C[C@@H](F)C[C@H]2C#N)cc1F | 1.2 | 9.94 | IC50 [1]: > 10 µM
CCOC(=O)c1ccc(N2C[C@@H]3[C@H](C2)[C@H]3NCC(=O)N2C[C@@H](F)C[C@H]2C#N)cc1 | 9.88 | – | –
N#C[C@@H]1C[C@H](F)CN1C(=O)CN[C@H]1[C@@H]2CN(c3ccc(C(F)(F)F)cn3)C[C@@H]21 | 4 | > 100 | –
N#Cc1ccc(N2C[C@@H]3[C@H](C2)[C@H]3NCC(=O)N2CCSC2)nc1 | – | – | IC50 [5]: > 10 µM
N#Cc1cc(C(F)(F)F)ccc1N1C[C@@H]2[C@H](C1)[C@H]2NCC(=O)N1C[C@@H](F)C[C@H]1C#N | 4.33 | > 100 | –
CC(=O)c1ccc(N2C[C@@H]3[C@H](C2)[C@H]3NCC(=O)N2C[C@@H](F)C[C@H]2C#N)cc1 | 9 | – | IC50 [1]: > 10 µM
N#Cc1cc(F)cc(N2C[C@@H]3[C@H](C2)[C@H]3NCC(=O)N2C[C@@H](F)C[C@H]2C#N)c1 | 1.8 | 9.15 | –
N#Cc1cccc(F)c1N1C[C@@H]2[C@H](C1)[C@H]2NCC(=O)N1C[C@@H](F)C[C@H]1C#N | 1.3 | > 10 | –
N#Cc1ccc(N2C[C@@H]3[C@H](C2)[C@H]3NCC(=O)N2C[C@@H](F)C[C@H]2C#N)cc1Cl | 0.907 | – | –
N#C[C@@H]1C[C@H](F)CN1C(=O)CN[C@H]1[C@@H]2CN(c3ncccn3)C[C@@H]21 | 16.5 | – | IC50 [6]: > 100 µM
N[C@@H](CCCCNC(=O)OCc1ccc([N+](=O)[O-])cc1)C(=O)N1CCCC1 | – | – | IC50 [1]: 0.839 µM
N#Cc1c(F)cc(N2C[C@@H]3[C@H](C2)[C@H]3NCC(=O)N2C[C@@H](F)C[C@H]2C#N)cc1F | 10.9 | 9.7 | –
NCC[C@H](N)C(=O)N1CCCCC1 | 0.163 | – | –
N#C[C@@H]1CCCN1C(=O)CNC12CC3CC(CC(O)(C3)C1)C2 [VILDAGLIPTIN] | – | – | IC50 [1]: > 10 µM

The next lines start with results.

IC50 [2] [µM] | IC50 [3] [µM] | SMILES | further results
1.34 | – | N#Cc1cccnc1N1C[C@@H]2[C@H](C1)[C@H]2NCC(=O)N1C[C@@H](F)C[C@H]1C#N | IC50 [1]: > 10 µM
0.406 | > 10 | N#Cc1ccccc1N1C[C@@H]2[C@H](C1)[C@H]2NCC(=O)N1C[C@@H](F)C[C@H]1C#N | –
18.1 | – | N#Cc1ccc(N2C[C@@H]3[C@H](C2)[C@H]3NCC(=O)N2C[C@@H](F)C[C@H]2C#N)cc1 | –
2.76 | > 10 | N#Cc1ccc(N2C[C@@H]3[C@H](C2)[C@H]3NCC(=O)N2C[C@@H](F)C[C@H]2C#N)c(F)c1 | –
0.096 | – | N#Cc1c(Cl)cccc1N1C[C@@H]2[C@H](C1)[C@H]2NCC(=O)N1C[C@@H](F)C[C@H]1C#N | IC50 [1]: > 10 µM; IC50 [4]: > 10 µM
13 | 8.5 | N#C[C@@H]1C[C@H](F)CN1C(=O)CN[C@H]1[C@@H]2CN(c3ccc([N+](=O)[O-])cn3)C[C@@H]21 | –
> 10 | > 10 | N#Cc1c(F)cccc1N1C[C@@H]2[C@H](C1)[C@H]2NCC(=O)N1C[C@@H](F)C[C@H]1C#N | IC50 [4]: > 10 µM
> 10 | > 10 | N#Cc1cc(F)ccc1N1C[C@@H]2[C@H](C1)[C@H]2NCC(=O)N1C[C@@H](F)C[C@H]1C#N | –
11 | > 100 | N#C[C@@H]1C[C@H](F)CN1C(=O)CN[C@H]1[C@@H]2CN(c3nccs3)C[C@@H]21 | –
21.8 | – | N#C[C@@H]1C[C@H](F)CN1C(=O)CN[C@H]1[C@@H]2CN(c3ccc(C(N)=O)cc3)C[C@@H]21 | IC50 [1]: > 10 µM
5.1 | > 10 | N#C[C@@H]1C[C@H](F)CN1C(=O)CN[C@H]1[C@@H]2CN(c3nc4ccccc4s3)C[C@@H]21 | –
5.1 | > 100 | N#C[C@@H]1C[C@H](F)CN1C(=O)CN[C@H]1[C@@H]2CN(c3nc4ccccc4o3)C[C@@H]21 | –
6.42 | > 10 | N#C[C@@H]1C[C@H](F)CN1C(=O)CN[C@H]1[C@@H]2CN(c3ncccc3[N+](=O)[O-])C[C@@H]21 | –
2.8 | – | N#Cc1ccc(N2C[C@@H]3[C@H](C2)[C@H]3NCC(=O)N2CC(F)(F)C[C@H]2C#N)nc1 | –
1 | 2.1 | N#Cc1ccc(N2C[C@@H]3[C@H](C2)[C@H]3NCC(=O)N2C[C@@H](F)C[C@H]2C#N)c(C(F)(F)F)c1 | –
1 | – | N#Cc1ccc(N2C[C@@H]3[C@H](C2)[C@H]3NCC(=O)N2C[C@@H](F)C[C@H]2C#N)c(Cl)c1 | –
0.226 | > 10 | N#C[C@@H]1C[C@H](F)CN1C(=O)CN[C@H]1[C@@H]2CN(c3cnc4ccccc4n3)C[C@@H]21 | –
2.2 | > 100 | N#C[C@@H]1C[C@H](F)CN1C(=O)CN[C@H]1[C@@H]2CN(c3nccc(C(F)(F)F)n3)C[C@@H]21 | –
10.8 | 1.42 | N#C[C@@H]1C[C@H](F)CN1C(=O)CN[C@H]1[C@@H]2CN(c3ccccn3)C[C@@H]21 | IC50 [1]: > 10 µM
11 | > 100 | N#Cc1ccc(N2C[C@@H]3[C@H](C2)[C@H]3NCC(=O)N2C[C@@H](F)C[C@H]2C#N)nc1 | –
1.3 | > 10 | N#Cc1c(N2C[C@@H]3[C@H](C2)[C@H]3NCC(=O)N2C[C@@H](F)C[C@H]2C#N)cccc1C(F)(F)F | –
3.9 | 8.7 | N#Cc1c(F)cc(F)cc1N1C[C@@H]2[C@H](C1)[C@H]2NCC(=O)N1C[C@@H](F)C[C@H]1C#N | –
